Among the data in US12258327B2, “5-membered heteroaryl-containing aminopyridine compounds as EGFR inhibitors” (YUHAN CORPORATION, priority 2021, dated 2025) are IC50 values, retold here.

Read-outs that look alike come from different tables or passages of the source. Where only a bound is given, the exact number is not on record here.

The target in one assay is EGFR del19/T790M/C797S (Homo sapiens, UniProt P00533, C797S/DEL746-750/T790M). Description: Biochemical EGFR kinase assay (Lance Ultra TR-FRET), triple mutant del19/T790M/C797S. The gist of the method:
(§1)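 Step 1: compound in kinase buffer, 0.003–10 μM. Step 2: kinase reaction 1 h at room temperature. Step 4: TR-FRET read at 615/665 nm; IC50 calculated.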
A general note: TR-FRET usually uses a lanthanide donor and a delayed reading to cut background.

The target in the next assay is EGFR L858R/C797S (Homo sapiens, UniProt P00533, C797S/L858R). Description: Biochemical EGFR kinase assay (Lance Ultra TR-FRET), double mutant L858R/C797S. The essentials: as §1
EGFR L858R/C797S, sequence (P00533 25-1210 C797S/L858R): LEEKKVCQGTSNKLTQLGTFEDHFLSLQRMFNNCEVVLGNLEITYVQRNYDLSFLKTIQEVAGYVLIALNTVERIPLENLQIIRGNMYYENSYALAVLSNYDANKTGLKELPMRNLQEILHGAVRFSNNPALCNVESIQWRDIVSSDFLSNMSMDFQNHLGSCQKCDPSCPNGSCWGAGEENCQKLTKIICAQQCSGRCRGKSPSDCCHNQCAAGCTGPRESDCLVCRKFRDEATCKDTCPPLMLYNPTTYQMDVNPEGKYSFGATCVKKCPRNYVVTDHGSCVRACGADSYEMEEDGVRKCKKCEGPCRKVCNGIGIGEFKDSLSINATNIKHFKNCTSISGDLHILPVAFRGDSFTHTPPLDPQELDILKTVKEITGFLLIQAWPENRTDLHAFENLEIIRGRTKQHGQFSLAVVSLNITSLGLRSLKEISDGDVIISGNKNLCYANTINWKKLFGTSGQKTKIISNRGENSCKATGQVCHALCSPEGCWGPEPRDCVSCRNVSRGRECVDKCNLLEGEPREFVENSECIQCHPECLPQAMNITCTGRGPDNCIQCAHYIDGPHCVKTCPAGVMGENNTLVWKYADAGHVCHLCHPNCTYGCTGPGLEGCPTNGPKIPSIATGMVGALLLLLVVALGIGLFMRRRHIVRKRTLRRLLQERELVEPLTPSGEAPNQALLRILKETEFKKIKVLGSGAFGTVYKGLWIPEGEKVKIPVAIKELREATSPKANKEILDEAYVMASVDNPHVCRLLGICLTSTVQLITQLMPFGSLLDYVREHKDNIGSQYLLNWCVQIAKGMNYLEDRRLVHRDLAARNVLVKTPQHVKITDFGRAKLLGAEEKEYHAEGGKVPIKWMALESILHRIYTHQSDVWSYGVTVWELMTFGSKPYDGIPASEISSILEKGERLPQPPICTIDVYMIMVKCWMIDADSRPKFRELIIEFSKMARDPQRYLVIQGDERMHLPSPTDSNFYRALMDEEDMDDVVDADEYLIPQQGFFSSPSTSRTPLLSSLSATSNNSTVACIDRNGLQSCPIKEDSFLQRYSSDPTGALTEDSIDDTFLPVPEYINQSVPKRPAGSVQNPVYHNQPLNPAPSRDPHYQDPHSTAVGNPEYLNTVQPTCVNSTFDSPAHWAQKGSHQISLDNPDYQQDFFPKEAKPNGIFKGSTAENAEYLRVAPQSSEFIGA
A further assay has as its target EGFR L858R/T790M/C797S (Homo sapiens, UniProt P00533, C797S/L858R/T790M). Description: Biochemical EGFR kinase assay (Lance Ultra TR-FRET), triple mutant L858R/T790M/C797S. The gist of the method: as §1
The target of the next assay is EGFR del19/C797S (Homo sapiens, UniProt P00533, C797S/DEL746-750). Kind of assay: Biochemical EGFR kinase assay (Lance Ultra TR-FRET), double mutant del19/C797S. The essentials: as §1
EGFR del19/C797S, sequence (P00533 with tags, fused parts or gaps DEL746-750/C797S): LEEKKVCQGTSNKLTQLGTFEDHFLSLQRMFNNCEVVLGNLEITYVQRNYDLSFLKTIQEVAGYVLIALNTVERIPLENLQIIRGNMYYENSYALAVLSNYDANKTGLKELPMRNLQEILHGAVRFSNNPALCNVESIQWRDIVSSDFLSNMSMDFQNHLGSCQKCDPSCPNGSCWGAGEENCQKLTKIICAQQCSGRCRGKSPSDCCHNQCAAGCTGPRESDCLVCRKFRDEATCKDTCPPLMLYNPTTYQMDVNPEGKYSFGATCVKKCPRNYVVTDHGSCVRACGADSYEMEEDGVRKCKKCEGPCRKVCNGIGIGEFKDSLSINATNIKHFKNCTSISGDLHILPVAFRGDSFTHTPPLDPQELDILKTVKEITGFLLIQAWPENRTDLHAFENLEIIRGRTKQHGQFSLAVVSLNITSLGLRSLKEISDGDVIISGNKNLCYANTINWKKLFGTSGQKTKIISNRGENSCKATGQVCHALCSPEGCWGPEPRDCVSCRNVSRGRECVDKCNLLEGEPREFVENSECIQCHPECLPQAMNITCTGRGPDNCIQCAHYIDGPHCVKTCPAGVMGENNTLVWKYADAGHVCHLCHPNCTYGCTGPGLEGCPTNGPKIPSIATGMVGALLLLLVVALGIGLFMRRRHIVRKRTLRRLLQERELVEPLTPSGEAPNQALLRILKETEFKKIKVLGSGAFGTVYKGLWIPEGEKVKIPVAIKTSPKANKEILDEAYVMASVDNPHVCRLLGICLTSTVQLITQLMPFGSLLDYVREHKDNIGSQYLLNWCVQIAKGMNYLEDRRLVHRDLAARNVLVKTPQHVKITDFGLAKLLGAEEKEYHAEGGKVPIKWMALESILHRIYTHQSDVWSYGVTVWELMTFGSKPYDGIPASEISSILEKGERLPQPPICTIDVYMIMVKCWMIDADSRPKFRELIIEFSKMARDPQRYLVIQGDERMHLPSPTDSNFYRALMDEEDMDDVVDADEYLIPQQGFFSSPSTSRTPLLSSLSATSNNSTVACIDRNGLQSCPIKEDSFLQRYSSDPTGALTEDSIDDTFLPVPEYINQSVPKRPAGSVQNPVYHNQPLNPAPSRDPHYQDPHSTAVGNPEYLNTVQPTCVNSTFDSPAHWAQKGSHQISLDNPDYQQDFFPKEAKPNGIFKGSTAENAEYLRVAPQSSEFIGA
Another assay addresses EGFR wildtype (WT) (Homo sapiens, UniProt P00533). Description: Biochemical EGFR kinase assay (Lance Ultra TR-FRET), wildtype. The essentials:
as §1

[1] abbreviates: IC50 del19/T790M/C797S (nM) 100 μM ATP, 100 μM ATP.
Setting [2] is: Km ATP, read-out: IC50 del19/T790M/C797S (nM) Km ATP.
Setting [3] is: IC50 L858R/C797S (nM) 100 μM ATP, 100 μM ATP.
Setting [4] is: Km ATP, read-out: IC50 L858R/C797S (nM) Km ATP.
Where [5] appears, read: IC50 L858R/T790M/C797S (nM) 100 μM ATP, 100 μM ATP.
Setting [6] is: IC50 del19/C797S (nM) 100 μM ATP, 100 μM ATP.
Where [7] appears, read: Km ATP, read-out: IC50 del19/C797S (nM) Km ATP.
The mark [8] stands for this setting: IC50 WT (nM) 100 μM ATP, 100 μM ATP.
Where [9] appears, read: Km ATP, read-out: IC50 WT (nM) Km ATP.
Setting [10] is: Km ATP, read-out: IC50 L858R/T790M/C797S (nM) Km ATP.

EGFR wildtype (WT), sequence (P00533 25-1210): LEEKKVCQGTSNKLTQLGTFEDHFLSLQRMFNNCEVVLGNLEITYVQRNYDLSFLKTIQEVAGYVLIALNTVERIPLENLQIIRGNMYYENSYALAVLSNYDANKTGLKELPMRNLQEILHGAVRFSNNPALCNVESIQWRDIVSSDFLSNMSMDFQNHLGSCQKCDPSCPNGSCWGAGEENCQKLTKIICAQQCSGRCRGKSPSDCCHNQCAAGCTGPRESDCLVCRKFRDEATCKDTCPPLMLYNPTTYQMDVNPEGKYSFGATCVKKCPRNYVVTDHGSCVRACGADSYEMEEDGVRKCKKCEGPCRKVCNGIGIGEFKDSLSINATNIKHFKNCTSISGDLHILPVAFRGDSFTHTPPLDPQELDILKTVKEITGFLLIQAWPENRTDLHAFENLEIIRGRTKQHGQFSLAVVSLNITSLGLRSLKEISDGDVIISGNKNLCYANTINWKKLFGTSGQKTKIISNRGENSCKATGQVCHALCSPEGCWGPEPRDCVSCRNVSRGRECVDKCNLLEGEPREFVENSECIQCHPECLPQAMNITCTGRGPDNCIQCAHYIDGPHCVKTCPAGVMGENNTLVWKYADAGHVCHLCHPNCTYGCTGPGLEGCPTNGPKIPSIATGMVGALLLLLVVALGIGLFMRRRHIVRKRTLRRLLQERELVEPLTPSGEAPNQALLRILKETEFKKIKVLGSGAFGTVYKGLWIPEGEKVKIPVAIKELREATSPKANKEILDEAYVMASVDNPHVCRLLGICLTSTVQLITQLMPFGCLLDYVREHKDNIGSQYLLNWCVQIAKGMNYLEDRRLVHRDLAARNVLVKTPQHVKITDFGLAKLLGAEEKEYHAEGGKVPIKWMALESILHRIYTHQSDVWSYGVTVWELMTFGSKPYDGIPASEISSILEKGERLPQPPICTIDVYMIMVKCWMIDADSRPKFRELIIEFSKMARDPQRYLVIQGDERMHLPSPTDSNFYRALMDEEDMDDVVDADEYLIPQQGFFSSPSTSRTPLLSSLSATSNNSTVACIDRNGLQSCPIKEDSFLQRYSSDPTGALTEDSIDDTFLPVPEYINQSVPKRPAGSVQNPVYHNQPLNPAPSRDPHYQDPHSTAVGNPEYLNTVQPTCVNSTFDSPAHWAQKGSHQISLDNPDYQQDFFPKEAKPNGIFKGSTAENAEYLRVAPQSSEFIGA
EGFR L858R/T790M/C797S, sequence (P00533 25-1210 T790M/C797S/L858R): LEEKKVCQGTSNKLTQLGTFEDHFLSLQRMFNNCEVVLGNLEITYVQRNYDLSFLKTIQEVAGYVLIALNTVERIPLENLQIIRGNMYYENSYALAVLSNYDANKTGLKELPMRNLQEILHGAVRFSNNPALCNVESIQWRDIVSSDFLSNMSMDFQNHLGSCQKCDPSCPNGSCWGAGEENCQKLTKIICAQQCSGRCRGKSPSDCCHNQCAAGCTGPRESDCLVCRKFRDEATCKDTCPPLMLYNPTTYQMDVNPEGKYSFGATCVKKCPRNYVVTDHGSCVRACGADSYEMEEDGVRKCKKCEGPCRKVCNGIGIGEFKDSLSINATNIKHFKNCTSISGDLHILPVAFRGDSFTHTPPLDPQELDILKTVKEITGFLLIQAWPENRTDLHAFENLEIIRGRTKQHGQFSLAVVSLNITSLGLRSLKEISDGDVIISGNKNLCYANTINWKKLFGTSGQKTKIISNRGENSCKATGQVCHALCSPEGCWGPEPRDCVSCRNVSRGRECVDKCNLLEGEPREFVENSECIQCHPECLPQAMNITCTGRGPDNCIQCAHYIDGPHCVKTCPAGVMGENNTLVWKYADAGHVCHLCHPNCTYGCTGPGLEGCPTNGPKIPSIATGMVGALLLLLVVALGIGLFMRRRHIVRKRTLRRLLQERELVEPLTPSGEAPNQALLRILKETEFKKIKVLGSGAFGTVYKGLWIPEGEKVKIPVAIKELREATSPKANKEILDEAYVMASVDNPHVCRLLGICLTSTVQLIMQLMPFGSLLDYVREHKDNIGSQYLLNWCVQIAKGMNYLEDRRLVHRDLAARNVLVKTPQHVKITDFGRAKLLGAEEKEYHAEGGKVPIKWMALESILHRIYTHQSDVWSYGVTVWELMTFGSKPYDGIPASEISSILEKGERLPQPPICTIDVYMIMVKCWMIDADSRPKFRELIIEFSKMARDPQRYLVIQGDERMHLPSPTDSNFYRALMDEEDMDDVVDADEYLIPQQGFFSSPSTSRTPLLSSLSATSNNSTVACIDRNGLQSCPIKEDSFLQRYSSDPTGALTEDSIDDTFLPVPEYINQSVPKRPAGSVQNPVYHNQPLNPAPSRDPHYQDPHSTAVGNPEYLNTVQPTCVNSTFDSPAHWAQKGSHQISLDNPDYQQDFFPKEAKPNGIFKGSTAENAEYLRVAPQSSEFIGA

`CC1(C)CC(Nc2cc(Nc3ccnc(-c4cnn(S(=O)(=O)C5CC5)c4)n3)ncc2-c2ccn(C(F)F)n2)CCC1O` (stereo not shown) [Example 106, 4-((2-((2-(1-(Cyclopropylsulfonyl)-1H-pyrazol-4-yl)pyrimidin-4-yl)amino)-5-(1-(difluoromethyl)-1H-pyrazol-3-yl)pyridin-4-yl)amino)-2,2-dimethylcyclohexan-1-ol]: the IC50 is 3.9 nM against EGFR del19/T790M/C797S (setting [1]); 3.9 nM on EGFR del19/T790M/C797S (setting [2]); 453 nM at EGFR L858R/C797S (setting [3]); 19 nM on EGFR L858R/C797S (setting [4]); 2.6 nM against EGFR L858R/T790M/C797S (setting [5]); 22.7 nM on EGFR del19/C797S (setting [6]). In addition, the IC50 at EGFR del19/C797S (setting [7]) was 19.6 nM; at EGFR wildtype (WT) (setting [8]), 9960 nM; on EGFR wildtype (WT) (setting [9]) it was 46.9 nM.

Turning to `O=S(=O)(C1CC1)n1cc(-c2nccc(Nc3cc(NCCCn4ccnc4)c(-c4ccn(C(F)F)n4)cn3)n2)cn1` [Example 41, N^4-(3-(1H-Imidazol-1-yl)propyl)-N^2-(2-(1-(cyclopropylsulfonyl)-1H-pyrazol-4-yl)pyrimidin-4-yl)-5-(1-(difluoromethyl)-1H-pyrazol-3-yl)pyridine-2,4-diamine], the IC50 at EGFR del19/T790M/C797S (setting [1]) was 2 nM; at EGFR L858R/C797S (setting [3]), > 10000 nM; on EGFR L858R/T790M/C797S (setting [5]), 6.8 nM; against EGFR del19/C797S (setting [6]) it was 34.8 nM; at EGFR wildtype (WT) (setting [8]), > 10000 nM.

Turning to `FC(F)Cn1cc(-c2nccc(Nc3cc(N[C@H]4CC[C@@H](F)CC4)c(-c4ccn(CC(F)(F)F)n4)cn3)n2)cn1` [Example 339, N^2-(2-(1-(2,2-Difluoroethyl)-1H-pyrazol-4-yl)pyrimidin-4-yl)-N^4-((1s,4s)-4-fluorocyclohexyl)-5-(1-(2,2,2-trifluoroethyl)-1H-pyrazol-3-yl)pyridine-2,4-diamine], the IC50 at EGFR del19/T790M/C797S (Km ATP, read-out: IC50 del19/T790M/C797S, Km ATP) was 2.9 nM; at EGFR L858R/C797S (Km ATP, read-out: IC50 L858R/C797S, Km ATP) it was 113 nM; on EGFR L858R/T790M/C797S (Km ATP, read-out: IC50 L858R/T790M/C797S, Km ATP), 0.4 nM; at EGFR del19/C797S (Km ATP, read-out: IC50 del19/C797S, Km ATP), 1070 nM; at EGFR wildtype (WT) (Km ATP, read-out: IC50 WT, Km ATP), 424 nM.

Consider `CN(C)C[C@H]1C[C@H](CNc2cc(Nc3ccnc(-c4cnn(S(=O)(=O)C5CC5)c4)n3)ncc2-c2ccn(C(F)F)n2)C1` [Example 209, N^2-(2-(1-(Cyclopropylsulfonyl)-1H-pyrazol-4-yl)pyrimidin-4-yl)-5-(1-(difluoromethyl)-1H-pyrazol-3-yl)-N^4-(((1r,3r)-3-((dimethylamino)methyl)cyclobutyl)methyl)pyridine-2,4-diamine], for which the IC50 came out at 0.3 nM at EGFR del19/T790M/C797S (setting [2]); 4.8 nM on EGFR L858R/C797S (setting [4]); 0.1 nM on EGFR L858R/T790M/C797S (setting [10]); 6.4 nM on EGFR del19/C797S (setting [7]); 13.1 nM at EGFR wildtype (WT) (setting [9]).

Regarding `CN(C)C[C@H]1C[C@H](CNc2cc(Nc3ccnc(-c4cnn(S(=O)(=O)C5CC5)c4)n3)ncc2-c2ccn(CC(F)F)n2)C1` [Example 249, N^2-(2-(1-(Cyclopropylsulfonyl)-1H-pyrazol-4-yl)pyrimidin-4-yl)-5-(1-(2,2-difluoroethyl)-1H-pyrazol-3-yl)-N^4-(((1r,3r)-3-((dimethylamino)methyl)cyclobutyl)methyl)pyridine-2,4-diamine], the IC50 on EGFR del19/T790M/C797S (setting [2]) amounted to 0.4 nM; on EGFR L858R/C797S (setting [4]) it was 6.1 nM; at EGFR L858R/T790M/C797S (setting [10]), 0.1 nM; at EGFR del19/C797S (setting [7]), 11.5 nM; on EGFR wildtype (WT) (setting [9]) it was 7.5 nM.

For `CN(C)CC1(C)CCC(Nc2cc(Nc3ccnc(-c4cnn(S(=O)(=O)C5CC5)c4)n3)ncc2-c2ccn(C)n2)CC1` (stereo not shown) [Example 238, N^2-(2-(1-(Cyclopropylsulfonyl)-1H-pyrazol-4-yl)pyrimidin-4-yl)-N^4-(4-((dimethylamino)methyl)-4-methylcyclohexyl)-5-(1-methyl-1H-pyrazol-3-yl)pyridine-2,4-diamine], the IC50 at EGFR del19/T790M/C797S (setting [1]) was 0.6 nM; on EGFR del19/T790M/C797S (setting [2]), 0.8 nM; at EGFR L858R/C797S (setting [3]), 178 nM; on EGFR L858R/C797S (setting [4]), 7.1 nM; against EGFR L858R/T790M/C797S (setting [5]), 0.6 nM; on EGFR L858R/T790M/C797S (setting [10]) it was 0.4 nM. Further, the IC50 against EGFR del19/C797S (setting [6]) amounted to 4.9 nM; at EGFR del19/C797S (setting [7]), 2 nM; at EGFR wildtype (WT) (setting [8]) it was 3600 nM; on EGFR wildtype (WT) (setting [9]) it was 7.5 nM.

`Cc1nn(C)c(F)c1-c1nccc(Nc2cc(N[C@H]3CC[C@@](C)(O)CC3)c(-c3ccn(C(F)F)n3)cn2)n1` [Example 319, (1s,4s)-4-((5-(1-(Difluoromethyl)-1H-pyrazol-3-yl)-2-((2-(5-fluoro-1,3-dimethyl-1H-pyrazol-4-yl)pyrimidin-4-yl)amino)pyridin-4-yl)amino)-1-methylcyclohexan-1-ol]: the IC50 is 0.4 nM on EGFR del19/T790M/C797S (setting [2]); 16.9 nM on EGFR L858R/C797S (setting [4]); 0.3 nM at EGFR L858R/T790M/C797S (setting [10]); 47.3 nM on EGFR del19/C797S (setting [7]); 184 nM on EGFR wildtype (WT) (setting [9]).

With `CN(C)[C@H]1CC[C@H](CNc2cc(Nc3ccnc(-c4cnn(S(=O)(=O)C5CC5)c4)n3)ncc2-c2ccn(C(F)F)n2)CC1` [Example 25, N^2-(2-(1-(Cyclopropylsulfonyl)-1H-pyrazol-4-yl)pyrimidin-4-yl)-5-(1-(difluoromethyl)-1H-pyrazol-3-yl)-N^4-(((1r,4r)-4-(dimethylamino)cyclohexyl)methyl)pyridine-2,4-diamine], the IC50 on EGFR del19/T790M/C797S (setting [2]) was 0.1 nM; at EGFR del19/T790M/C797S (read-out: IC50 del19/T790M/C797S (nM) 100 μM ATP, 100 μM ATP), 0.1 nM; on EGFR L858R/C797S (setting [4]), 0.3 nM; on EGFR L858R/T790M/C797S (setting [10]) it was 0.02 nM; on EGFR L858R/T790M/C797S (read-out: IC50 L858R/T790M/C797S (nM) 100 μM ATP, 100 μM ATP), 0.1 nM; at EGFR del19/C797S (setting [7]), 0.2 nM. Also, the IC50 was found to be 0.3 nM on EGFR del19/C797S (read-out: IC50 del19/C797S (nM) 100 μM ATP, 100 μM ATP); 2.7 nM on EGFR wildtype (WT) (setting [9]); 2050 nM on EGFR wildtype (WT) (read-out: IC50 WT (nM) 100 μM ATP, 100 μM ATP).

Turning to `OCC[C@H]1CC[C@@H](Nc2cc(Nc3ccnc(-c4cnn(CC(F)F)c4)n3)ncc2-c2ccn(C(F)F)n2)CC1` [Example 146, 2-((1s,4s)-4-((2-((2-(1-(2,2-Difluoroethyl)-1H-pyrazol-4-yl)pyrimidin-4-yl)amino)-5-(1-(difluoromethyl)-1H-pyrazol-3-yl)pyridin-4-yl)amino)cyclohexyl)ethan-1-ol], the IC50 was determined as 1.1 nM at EGFR del19/T790M/C797S (setting [2]); 4.7 nM at EGFR L858R/C797S (setting [4]); 0.4 nM on EGFR L858R/T790M/C797S (setting [10]); 10.8 nM at EGFR del19/C797S (setting [7]); 19.9 nM on EGFR wildtype (WT) (setting [9]).

Turning to `CN(CC(F)F)C[C@H]1CC[C@@H](Nc2cc(Nc3ccnc(-c4cnn(S(=O)(=O)C5CC5)c4)n3)ncc2-c2ccn(C(F)F)n2)CC1` [Example 206, N^2-(2-(1-(Cyclopropylsulfonyl)-1H-pyrazol-4-yl)pyrimidin-4-yl)-N^4-((1s,4s)-4-(((2,2-difluoroethyl)(methyl)amino)methyl)cyclohexyl)-5-(1-(difluoromethyl)-1H-pyrazol-3-yl)pyridine-2,4-diamine], the IC50 is 22.1 nM at EGFR del19/T790M/C797S (setting [1]); 206 nM at EGFR L858R/C797S (setting [3]); 13.8 nM at EGFR L858R/T790M/C797S (setting [5]); 26.9 nM against EGFR del19/C797S (setting [6]); > 10000 nM against EGFR wildtype (WT) (setting [8]).

With `Cn1ccc(-c2cnc(Nc3ccnc(-c4cnn(S(=O)(=O)C5CC5)c4)n3)cc2NC[C@H]2C[C@H](CO)C2)n1` [Example 223, ((1r,3r)-3-(((2-((2-(1-(Cyclopropylsulfonyl)-1H-pyrazol-4-yl)pyrimidin-4-yl)amino)-5-(1-methyl-1H-pyrazol-3-yl)pyridin-4-yl)amino)methyl)cyclobutyl)methanol], the IC50 was 0.2 nM against EGFR del19/T790M/C797S (setting [1]); 0.2 nM on EGFR del19/T790M/C797S (setting [2]); 5.9 nM on EGFR L858R/C797S (setting [3]); 0.7 nM on EGFR L858R/C797S (setting [4]); 0.2 nM on EGFR L858R/T790M/C797S (setting [5]); 0.1 nM at EGFR L858R/T790M/C797S (setting [10]). Moreover, the IC50 at EGFR del19/C797S (setting [6]) is 0.6 nM; at EGFR del19/C797S (setting [7]), 0.3 nM; on EGFR wildtype (WT) (setting [8]), 3020 nM; at EGFR wildtype (WT) (setting [9]) it was 3.2 nM.
